Measurements reported in patent US10287298B2, “Nitrogen-containing analogs of salinomycin, synthesis and use against cancer stem cells and malaria” (Centre National de la Recherche Scientifique (CNRS), priority 2014, dated 2019).

How the values were obtained:
[1] = system: HMLER CD24− cells; test: Cell viability assay (CellTiter-Blue), IC50 assessment; assay type: cell-based, Human
Experimental: (§1) FIG. 1 represents viability of HMLER CD24− cells (full line) and HMLER CD24+ cells (dotted line) at different concentration of salinomycine (1A), AM5 […] or AM13 (1D).
(§2) Cell viability assay was carried out by plating 1000 cells per well in 96-well plates. NAC (2 mM, A9165 Sigma) or DFO (1 mM) were pretreated 2 hours prior to the compound treatment. CellTiter-Blue® Reagent (Promega; G3582) (20 μl/well) was added after 24, 48, or 72 hours treatment and cells were incubated for 1 hour before recording fluorescence (560(20)Ex/590(10)Em) using a Perkin Elmer Wallac 1420 Victor2 Microplate Reader.

[2] = system: HMLER CD24+ cells; test: as above; assay type: cell-based; conditions: Homo sapiens, read-out: IC50 CD24+
Experimental: as §1, §2

[3] = system: BT20; test: Cell death IC50, Annexin V-FITC/PI flow cytometry; assay type: cell-based; conditions: Homo sapiens, BT-20, 108 h, read-out: IC50 BT20
Experimental: (§3) The cells were seeded in a 6-well plate at density 5.105 cells/well and cultured overnight. The cells were then treated with various concentration (15, 30, 100, 500, 1000 and 10.000 nM) of salinomycine, AM5 and AM23 for 72 h, 96 h and 108 h. After treatment, cell death was quantified using Annexin V-FITC/Propidium Iodide (PI) assay according to the manufacturer's protocol (FITC Annexin V Apoptosis Detection Kit II, 556570, BD Pharmingen™) and analyzed by a LSRFortessa™ flow cytometer (BD Bioscience, San Jose, Calif.). The data were processed using Cell Quest software (BD Biosciences). Dose-response cell death curves were determined for indicated time.
(§4) For tumor cells, the cells are classified in function of their sensitivity of drugs. Here, the most sensitive cells are incubated for 72 h, the middle sensitive cells for 96 h and the less sensitive or resistant cells are incubated for 108 h with drug at several concentrations.
(§5) Concentrations of 30 nM, 500 nm and 1 μM were used for determining the IC50 of drugs.
(§6) Intervals][…]] mean that IC50 is included in this interval with exclusion of the valor 30 nM.

[4] = system: BT474; test: Cell death IC50, Annexin V-FITC/PI flow cytometry; assay type: cell-based; conditions: Homo sapiens, BT-474, 96 h, read-out: IC50 BT474
Experimental: as §3, §4, §5, §6

[5] = system: BT549; test: Cell death IC50, Annexin V-FITC/PI flow cytometry; assay type: cell-based; conditions: Homo sapiens, BT-549, 108 h, read-out: IC50 BT549
Experimental: as §3, §4, §5, §6

[6] = system: HBL100; test: Cell death IC50, Annexin V-FITC/PI flow cytometry; assay type: cell-based; conditions: Homo sapiens, HBL-100, read-out: IC50 HBL100
Experimental: as §3, §4, §5, §6

[7] = system: HMLE W2; test: Cell death IC50, Annexin V-FITC/PI flow cytometry; assay type: cell-based; conditions: Homo sapiens, read-out: IC50 HMLE W2
Experimental: as §3, §4, §5, §6

[8] = system: HMLER CD24low; test: Cell death IC50, Annexin V-FITC/PI flow cytometry; assay type: cell-based; conditions: Homo sapiens, 72 h, read-out: IC50 HMLER CD24low
Experimental: as §3, §4, §5, §6

[9] = system: HMLER GFP; test: Cell death IC50, Annexin V-FITC/PI flow cytometry; assay type: cell-based; conditions: Homo sapiens; 1rst sensibility (72 h)
Experimental: as §3, §4, §5, §6

[10] = system: HMLER ID2; test: Cell death IC50, Annexin V-FITC/PI flow cytometry; assay type: cell-based; conditions: Homo sapiens, 72 h, read-out: IC50 HMLER ID2
Experimental: as §3, §4, §5, §6

[11] = system: HMLER shECAD; test: Cell death IC50, Annexin V-FITC/PI flow cytometry; assay type: cell-based; conditions: Homo sapiens, 72 h, read-out: IC50 HMLER shECAD
Experimental: as §3, §4, §5, §6

[12] = system: MCF-7; test: Cell death IC50, Annexin V-FITC/PI flow cytometry; assay type: cell-based; conditions: Homo sapiens, MCF7, 72 h, read-out: IC50 MCF-7
Experimental: as §3, §4, §5, §6

[13] = system: MDA-MB-134; test: Cell death IC50, Annexin V-FITC/PI flow cytometry; assay type: cell-based; conditions: Homo sapiens, 96 h, read-out: IC50 MDA-MB-134
Experimental: as §3, §4, §5, §6

[14] = system: MDA-MB-231; test: Cell death IC50, Annexin V-FITC/PI flow cytometry; assay type: cell-based; conditions: Homo sapiens, MDA-MB-231, 96 h, read-out: IC50 MDA-MB-231
Experimental: as §3, §4, §5, §6

[15] = system: MDA-MB-361; test: Cell death IC50, Annexin V-FITC/PI flow cytometry; assay type: cell-based; conditions: Homo sapiens, MDA-MB-361, 96 h, read-out: IC50 MDA-MB-361
Experimental: as §3, §4, §5, §6

[16] = system: MDA-MD-157; test: Cell death IC50, Annexin V-FITC/PI flow cytometry; assay type: cell-based; conditions: Homo sapiens, 96 h, read-out: IC50 MDA-MD-157
Experimental: as §3, §4, §5, §6

[17] = system: T47D; test: Cell death IC50, Annexin V-FITC/PI flow cytometry; assay type: cell-based; conditions: Homo sapiens, Resistant (108 h)
Experimental: as §3, §4, §5, §6

[18] = system: Zr75.1; test: Cell death IC50, Annexin V-FITC/PI flow cytometry; assay type: cell-based; conditions: Homo sapiens, ZR-75-1, 72 h, read-out: IC50 Zr75.1
Experimental: as §3, §4, §5, §6

[19] = system: SW480; test: Cell death IC50, Annexin V-FITC/PI flow cytometry; assay type: cell-based; conditions: Homo sapiens, SW480, 108 h, read-out: IC50 SW480
Experimental: as §3, §4, §5, §6
(§7) The SW620 and SW480 cell lines are from colon tumors.

[20] = system: SW620; test: Cell death IC50, Annexin V-FITC/PI flow cytometry; assay type: cell-based; conditions: Homo sapiens, SW-620, 108 h, read-out: IC50 SW620
Experimental: as §3, §4, §5, §6, §7

[21] = system: HMLER CD24− cells; test: Cell proliferation and formation of mammospheres; assay type: cell-based, Human
Description: FIG. 2 is a representative phase contrast photomicrographs of mammospheres formed after 11 days in the absence of any added compound (Control) or in the presence of a defined amount of salinomycine, AM5, AM9 or AM13. […] The size of the mammospheres is correlated with progenitor cell proliferation, whereas the number of mammospheres formed after serial passages at clonal density is correlated with the self-renewal capacity of primitive Cancer Stem Cells. […]
FIG. 9 represents images of the third generation of mammospheres formed from individual HMLER CD24low cells treated during 7 days with the indicated drug. The size of the mammospheres is correlated with progenitor cell proliferation capacity, whereas the number of mammospheres formed after serial passages at clonal density is correlated with the self-renewal capacity of primitive Cancer Stem Cells.
AM5, AM9, AM13 and salinomycine were assessed for their capability to inhibit cell proliferation and formation of mammospheres. […]
AM5 and AM23 and salinomycine were assessed for their capability to inhibit cell proliferation and formation of mammospheres.

[22] = system: HMLER CD24low cells; test: Reactive Oxygen Species (ROS) levels by flow cytometry (CM-H2DCF-DA); assay type: cell-based, Human; conditions: 30 nM, 500 nM or 1 μM, 48 h
Experimental: Reactive Oxygen Species (ROS) levels were measured by flow cytometry or by confocal scanning immunofluorescence microscopy using CM-H2DCF-DA (C6827, invitrogen). Briefly, U2OS and HMLER CD24low cells were treated as indicated in FIG. 11 (30 nM, 500 nM or 1 μM of salinomycine, AM5 or AM23 or untreated during 48 h). Then, these cells were trypsined and incubated with 5 μM CM-H2DCF-DA at 37° C. for 40 min, washed once with PBS and were counterstained with DAPI (0.5 μg/ml) to exclude non-viable cells. The mean fluorescence intensity was determined as ROS production by flow cytometry with LSRFortessa™ cytometer (BD Bioscience, San Jose, Calif.). For immunofluorescence microscopy analysis, cells were seeded on coverslips and were treated with salinomycine derivatives (injection in culture medium then treatment during 24 h, 48 h and 72 h). LysoTracker® Red DND-99 (L-7528, Life technologies) was used to visualize lysosomes. Then, cells were fixed with 4% PFA/PBS. DAPI was used to visualize nuclear DNA. Cell images were obtained using a Deltavision real-time microscope (Applied Precision) or an ApoTome.2 microscope (Zeiss). ImageJ was used for further image processing.
FACS analysis of ROS in cells treated for 48 h is represented in FIG. 17.

[23] = system: MDA-MB-231 cells; test: Dead cells by DIOC6(3)/DAPI test with cathepsine B inhibitor; assay type: cell-based, Human; conditions: 500 nM; COA74-Me 30 μM; 48 h, 96 h, 108 h
Experimental: From the treatment, dead cells were assessed by DIOC6(3)/DAPI test and analyzed by flow cytometry.

[24] = third generation of mammospheres, HMLER CD24low cells treated 7 days

Structure (SMILES): CCC(C(=O)O)[C@H]1CC[C@H](C)C([C@@H](C)[C@H](O)[C@H](C)C(=O)[C@H](CC)[C@H]2O[C@]3(C=C[C@@H](NC4CC4)[C@]4(CC[C@@](C)([C@H]5CC[C@](O)(CC)[C@H](C)O5)O4)O3)[C@H](C)C[C@@H]2C)O1 (some centres unmarked) [AM23, Sal-cyclopropylamine]
- IC50 ([1]; Homo sapiens, read-out: IC50 CD24−): 43 nM
- activity against CD24 cells compared with salinomycine ([1]; comparison of the IC50 results): significantly improved activity
- IC50 [2]: 1200 nM
- IC50 [3]: 30 to 500 nM
- IC50 [4]: > 1000 nM
- IC50 [5]: > 1000 nM
- IC50 [6]: > 1000 nM
- IC50 [7]: 1000 nM
- IC50 [8]: < 30 nM
- IC50 [9]: 30 nM
- IC50 [10]: < 30 nM
- IC50 [11]: 30 nM
- IC50 [12]: 30 to 500 nM
- IC50 [13]: > 1000 nM
- IC50 [14]: > 1000 nM
- IC50 [15]: 1000 nM
- IC50 [16]: 30 to 500 nM
- IC50 [17]: > 1000 nM
- IC50 [18]: 30 to 500 nM
- IC50 [19]: 30 to 500 nM
- IC50 [20]: 30 to 500 nM
- inhibition of cell proliferation, efficacy in comparison with salinomycine ([21]; at 30 nM): ten-fold improved efficacy
- number of mammospheres [21, 24]: reduced the number of mammospheres
- size of mammospheres [21, 24]: reduced by the highest dose
- ROS induction [22]: induces ROS
- death of MDA-MB-231 cells in combination with cathepsine B inhibition [23]: combine themselves to induce the death
